From ChEMBL document CHEMBL1921680, “Synthesis and antileishmanial evaluation of 1-aryl-4-(4,5-dihydro-1H-imidazol-2-yl)-1H-pyrazole derivatives” (Bioorg Med Chem Lett, 2011)
Calls of active or inactive are those of the source. No cut-off for these calls is given here.

Key:
Leishmania infantum = assay: Antileishmanial activity against extracellular promastigotes form of Leishmania infantum MCAN/BR/98R619 after 24 hrs by neubauer chamber analysis; type: functional, organism-based; settings: MCAN/BR/98R619, 24 h
[1] = Cytotoxicity against mouse peritoneal macrophages at IC50 for Leishmania amazonensis MHOM/ BR/77/LTB0016; type: cell-based; settings: peritoneal macrophage cell
Leishmania braziliensis = assay: Antileishmanial activity against extracellular promastigotes form of Leishmania braziliensis MCAN/BR/97/P142 after 24 hrs by neubauer chamber analysis; type: functional, organism-based; settings: MCAN/BR/97/P142, 24 h
Leishmania amazonensis [2] = assay: Antileishmanial activity against extracellular promastigotes form of Leishmania amazonensis MHOM/ BR/77/LTB0016 after 24 hrs by neubauer chamber analysis; type: functional, organism-based; settings: MHOM/ BR/77/LTB0016, 24 h
Leishmania amazonensis [3] = assay: Antileishmanial activity against Leishmania amazonensis MHOM/ BR/77/LTB0016 infected in CBA mouse assessed as development of cutaneous lesions at 50 mg/kg, po qd for 30 days administered 4 weeks post infection measured up to week 21; type: functional, organism-based; parameters: dose 50 mg/kg
Mus musculus [4] = assay: Toxicity in CBA mouse infected with Leishmania amazonensis MHOM/ BR/77/LTB0016 assessed as change in neutrophils count at 50 mg/kg, po qd for 30 days administered 4 week post infection measured up to week 21; type: organism-based; parameters: dose 50 mg/kg, route oral; settings: in vivo
Mus musculus [5] = assay: Toxicity in CBA mouse infected with Leishmania amazonensis MHOM/ BR/77/LTB0016 assessed as change in leukocytes count at 50 mg/kg, po qd for 30 days administered 4 week post infection measured up to week 21; type: organism-based; parameters: dose 50 mg/kg, route oral; settings: in vivo
Mus musculus [6] = assay: Toxicity in CBA mouse infected with Leishmania amazonensis MHOM/ BR/77/LTB0016 assessed as weight loss at 50 mg/kg, po qd for 30 days administered 4 week post infection measured up to week 21; type: organism-based; parameters: dose 50 mg/kg, route oral; settings: in vivo
Mus musculus [7] = assay: Toxicity in CBA mouse infected with Leishmania amazonensis MHOM/ BR/77/LTB0016 assessed as change in monocytes count at 50 mg/kg, po qd for 30 days administered 4 week post infection measured up to week 21; type: organism-based; parameters: dose 50 mg/kg, route oral; settings: in vivo
Mus musculus [8] = assay: Toxicity in CBA mouse infected with Leishmania amazonensis MHOM/ BR/77/LTB0016 assessed as change in leukocytes count at 100 umol/kg, po qd for 30 days administered 4 week post infection measured up to week 21; type: organism-based; settings: in vivo
Mus musculus [9] = assay: Hepatotoxicity in CBA mouse infected with promastigotes form of Leishmania amazonensis MHOM/ BR/77/LTB0016 assessed as change in AST level at 100 umol/kg, po qd for 30 days administered 4 week post infection measured up to week 21; type: toxicity, organism-based; settings: in vivo
Mus musculus [10] = assay: Toxicity in CBA mouse infected with Leishmania amazonensis MHOM/ BR/77/LTB0016 assessed as weight loss at 29 to 100 umol/kg, po qd for 30 days administered 4 week post infection measured up to week 21; type: organism-based; settings: in vivo
Mus musculus [11] = assay: Toxicity in CBA mouse infected with Leishmania amazonensis MHOM/ BR/77/LTB0016 assessed as change in monocytes count at 100 umol/kg, po qd for 30 days administered 4 week post infection measured up to week 21; type: organism-based; settings: in vivo
Leishmania amazonensis [12] = assay: Antileishmanial activity against Leishmania amazonensis MHOM/ BR/77/LTB0016 infected in CBA mouse assessed as development of cutaneous lesions at 100 umol/kg, po qd for 30 days administered 4 weeks post infection measured up to week 21; type: functional, organism-based
Mus musculus [13] = assay: Hepatotoxicity in CBA mouse infected with promastigotes form of Leishmania amazonensis MHOM/ BR/77/LTB0016 assessed as change in ALT level at 100 umol/kg, po qd for 30 days administered 4 week post infection measured up to week 21; type: toxicity, organism-based; settings: in vivo
Mus musculus [14] = assay: Toxicity in CBA mouse infected with Leishmania amazonensis MHOM/ BR/77/LTB0016 assessed as change in neutrophils count at 100 umol/kg, po qd for 30 days administered 4 week post infection measured up to week 21; type: organism-based; settings: in vivo
Mus musculus [15] = assay: Renal toxicity in CBA mouse infected with promastigotes form of Leishmania amazonensis MHOM/ BR/77/LTB0016 assessed as change in creatinine level at 100 umol/kg, po qd for 30 days administered 4 week post infection measured up to week 21; type: organism-based; settings: in vivo

Structure (SMILES) | IC50 (Leishmania infantum) | Activity [1] | IC50 (Leishmania braziliensis) | IC50 (Leishmania amazonensis [2]) | also measured
Clc1cc(Cl)cc(-n2cc(C3=NCCN3)cn2)c1 | > 500 µM | 3.97% | 459 µM | > 500 µM | 
Nc1c(C2=NCCN2)cnn1-c1ccccc1 | > 500 µM |  | 433 µM | 365 µM | 
Fc1cccc(-n2cc(C3=NCCN3)cn2)c1 | > 500 µM |  |  | 54 µM | 
CC(=O)N1CCN(c2ccc(OCC3COC(Cn4ccnc4)(c4ccc(Cl)cc4Cl)O3)cc2)CC1 (centres undefined) [KETOCONAZOLE] |  |  |  |  | Activity (Leishmania amazonensis [3]): Active; Activity (Mus musculus [4]): Non-toxic; Activity (Mus musculus [5]): Non-toxic; Activity (Mus musculus [6]): Non-toxic; Activity (Mus musculus [7]): Non-toxic
Nc1c(C2=NCCN2)cnn1-c1cc(Cl)cc(Cl)c1 | > 500 µM |  | 437 µM | 15.5 µM | Activity (Mus musculus [8]): Non-toxic; Activity (Mus musculus [9]): Non-toxic; Activity (Mus musculus [10]): Non-toxic; Activity (Mus musculus [11]): Non-toxic; Activity (Leishmania amazonensis [12]): Active; Activity (Mus musculus [13]): Non-toxic; Activity (Mus musculus [14]): Non-toxic; Activity (Mus musculus [15]): Non-toxic
Brc1cccc(-n2cc(C3=NCCN3)cn2)c1 | > 500 µM | 11.98% |  | > 500 µM | 
Nc1c(C2=NCCN2)cnn1-c1cccc(Cl)c1 | > 500 µM | 15.2% | > 500 µM | > 500 µM | 
N=C(N)c1ccc(OCCCCCOc2ccc(C(=N)N)cc2)cc1 [PENTAMIDINE] | 100 µM | 31% | 50 µM | 10 µM | 
Clc1cccc(-n2cc(C3=NCCN3)cn2)c1 | > 500 µM | 6.46% | > 500 µM | 60 µM | 
Nc1c(C2=NCCN2)cnn1-c1cccc(F)c1 | > 500 µM |  | > 500 µM | > 500 µM | 
Brc1ccc(-n2cc(C3=NCCN3)cn2)cc1 | > 500 µM | 3.52% |  | 30 µM | 
Nc1c(C2=NCCN2)cnn1-c1cccc(Br)c1 |  |  |  | 31.3 µM | 
Clc1ccc(-n2cc(C3=NCCN3)cn2)cc1Cl | > 500 µM | 5.32% |  | 297 µM | 
c1ccc(-n2cc(C3=NCCN3)cn2)cc1 | > 500 µM | 11.26% | > 500 µM | 43 µM | 
Nc1c(C2=NCCN2)cnn1-c1ccc(Br)cc1 | > 500 µM |  | 272 µM | > 500 µM | 
Nc1c(C2=NCCN2)cnn1-c1ccc(Cl)c(Cl)c1 |  | 15.5% |  | 381 µM | 
